In patent US20120190669A1, “OXINDOLE COMPOUNDS” (CYLENE PHARMACEUTICALS, INC., priority 2008, published 2012):
Read-outs that look alike come from different tables or passages of the source.

Legend:
recombinant human PIM2 = recombinant human PIM2 (Homo sapiens, UniProt Q9P1W9); test: PIM-2 assay (radiometric); assay type: biochemical
Procedure: Test compounds dissolved and diluted in DMSO ([…]) were added to a reaction mixture comprising […] of 5× Reaction Buffer (40 mM MOPS pH 7.0, 5 mM EDTA), […] of recombinant human PIM2 solution (4 ng PIM-2 dissolved in dilution buffer (20 mM MOPS pH 7.0; EDTA 1 mM; 5% Glycerol; 0.01% Brij 35; […]; […] 2-mercaptoethanol; 1 mg/ml BSA)) and 8 ul of water. Reactions were initiated by the addition of 10 ul of ATP Solution (49% (15 mM MgCl2; 75 uM ATP) 1% ([γ-33P]ATP: Stock 1 mCi/100 μl; 3000 Ci/mmol (Perkin Elmer)) and 10 ul of substrate peptide solution ([…], dissolved in water at a concentration of 1 mM), Reactions were maintained for 10 min at 30° C. The reactions were quenched with 100 ul of 0.75% Phosphoric acid, then transferred to and filtrered through a Phosphocellulose filter plate (Millipore, MSPH-N6B-50). After washing each well 4 times with 0.75% Phosphoric acid, scintillation fluid (20 uL) was added to each well and the residual radioactivity was measured using a Wallac […] counter.

recombinant human FLT-3 = target: T1, recombinant human FLT-3 (Homo sapiens, UniProt P36888); test: FLT-3 kinase activity, cell free in vitro assay; assay type: biochemical; conditions: Table 7; 10 uM ATP; read-out: FLT3_RB: IC50
T1 sequence (P36888 27-993): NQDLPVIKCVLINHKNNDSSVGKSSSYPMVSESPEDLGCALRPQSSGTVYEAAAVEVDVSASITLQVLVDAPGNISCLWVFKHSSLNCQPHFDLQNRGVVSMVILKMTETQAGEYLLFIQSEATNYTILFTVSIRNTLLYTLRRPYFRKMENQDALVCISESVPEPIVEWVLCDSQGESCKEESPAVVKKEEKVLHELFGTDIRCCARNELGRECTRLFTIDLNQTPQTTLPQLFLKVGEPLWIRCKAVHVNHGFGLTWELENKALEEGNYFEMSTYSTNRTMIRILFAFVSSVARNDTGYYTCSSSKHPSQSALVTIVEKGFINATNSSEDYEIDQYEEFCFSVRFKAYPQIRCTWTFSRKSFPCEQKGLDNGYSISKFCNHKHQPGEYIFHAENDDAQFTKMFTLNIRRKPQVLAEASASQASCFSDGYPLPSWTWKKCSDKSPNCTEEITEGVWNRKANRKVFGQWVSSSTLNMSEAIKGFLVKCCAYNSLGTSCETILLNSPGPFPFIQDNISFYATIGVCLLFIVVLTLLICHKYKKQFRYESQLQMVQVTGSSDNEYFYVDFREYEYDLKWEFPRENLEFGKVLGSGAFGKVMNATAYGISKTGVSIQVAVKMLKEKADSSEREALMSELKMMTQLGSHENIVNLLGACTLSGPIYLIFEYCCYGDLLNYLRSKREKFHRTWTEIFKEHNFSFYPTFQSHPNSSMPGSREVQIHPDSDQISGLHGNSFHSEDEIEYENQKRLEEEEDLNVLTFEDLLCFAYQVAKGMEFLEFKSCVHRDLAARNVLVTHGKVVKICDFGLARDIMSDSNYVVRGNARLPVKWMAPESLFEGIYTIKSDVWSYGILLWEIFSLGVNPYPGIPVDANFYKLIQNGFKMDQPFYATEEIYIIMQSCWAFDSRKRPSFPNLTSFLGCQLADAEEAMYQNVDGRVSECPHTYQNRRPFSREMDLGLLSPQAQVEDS

recombinant PIM-1 = recombinant PIM-1 (Homo sapiens, UniProt P11309); test: PIM-1 kinase assay (radiometric, 15 uM ATP, DMSO 4%); assay type: biochemical; conditions: Table 4; 15 um ATP; read-out: PIM1: IC50 (15 um ATP)
recombinant PIM-1, sequence (P11309 whole entry): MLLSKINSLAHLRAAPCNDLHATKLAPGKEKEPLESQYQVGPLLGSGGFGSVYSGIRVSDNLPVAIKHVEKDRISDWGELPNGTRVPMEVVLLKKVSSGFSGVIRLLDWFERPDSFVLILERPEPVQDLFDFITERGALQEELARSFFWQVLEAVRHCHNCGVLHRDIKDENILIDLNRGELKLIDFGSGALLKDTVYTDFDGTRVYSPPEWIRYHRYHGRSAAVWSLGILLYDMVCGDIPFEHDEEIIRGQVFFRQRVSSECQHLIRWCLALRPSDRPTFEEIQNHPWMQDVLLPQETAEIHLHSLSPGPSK

K-562 = test: Alamar Blue cell proliferation assay, K-562; assay type: cell-based; conditions: Homo sapiens, K562, Table 4, read-out: AB: K-562
Procedure: (§1) A representative cell-proliferation assay protocol using Alamar Blue dye (stored at 4° C., use 20 ul per well) is described hereafter.
(§2) 96-Well Plate Setup and Compound Treatment
(§3) a. Split and trypsinize cells.
(§4) b. Count cells using hemocytometer.
(§5) c. Plate 4,000-5,000 cells per well in 100 μl of medium and seed into a 96-well plate according to the following plate layout. Add cell culture medium only to wells B10 to B12. Wells B1 to B9 have cells but no compound added.
(§6) d. Add 100 μl of 2× drug dilution to each well in a concentration shown in the plate layout above. At the same time, add 100 μl of media into the control wells (wells 1310 to B12). Total volume is 200 μl/well.
(§7) e. Incubate four (4) days at 37° C., 5% CO2 in a humidified incubator.
(§8) f. Add 20 μl Alamar Blue reagent to each well.
(§9) g. Incubate for four (4) hours at 37° C., 5% CO2 in a humidified incubator.
(§10) h. Record fluorescence at an excitation wavelength of 544 nm and emission wavelength of 590 nm using a microplate reader.
(§11) In the assays, cells are cultured with a test compound for approximately four days, the dye is then added to the cells and fluorescence of […] dye is detected after approximately four hours. Different types of cells can be utilized in the assays (e.g., HCT-116 human colorectal carcinoma cells, PC-3 human prostatic cancer cells and MiaPaca human pancreatic carcinoma cells).

[1] = system: MiaPaca human pancreatic carcinoma cells; test: Alamar Blue cell proliferation assay, MiaPaCa; assay type: cell-based; conditions: MIA PaCa-2, Table 4, read-out: AB: MiaPaCa
Procedure: as §1, §2, §3, §4, §5, §6, §7, §8, §9, §10, §11

[2] = system: PC-3 human prostatic cancer cells; test: Alamar Blue cell proliferation assay, PC3; assay type: cell-based; conditions: Table 4, read-out: AB: PC3
Procedure: as §1, §2, §3, §4, §5, §6, §7, §8, §9, §10, §11

MV-4-11 = test: Alamar Blue cell proliferation assay, MV-4-11; assay type: cell-based; conditions: Homo sapiens, MV4-11, Table 4, read-out: AB: MV-4-11
Procedure: as §1, §2, §3, §4, §5, §6, §7, §8, §9, §10, §11

THP-1 = test: Alamar Blue cell proliferation assay, THP-1; assay type: cell-based; conditions: Homo sapiens, Table 4, read-out: AB: THP-1
Procedure: as §1, §2, §3, §4, §5, §6, §7, §8, §9, §10, §11

phospho FLT3 = phospho FLT3 cell-based data; conditions: Table 4
phospho BAD = phospho BAD cell-based data; conditions: Table 4
Pim-3 (h) = target: T2, Pim-3 (h) (Homo sapiens, UniProt Q86V86); test: PIM-3 assay run at Millipore; assay type: biochemical; conditions: Table 8; read-out: PIM3 IC50
T2 construct: purchased Millipore (printed 'Millopore'; assay run as a service at the vendor)
Procedure: The PIM-3 assay was run at Millopore. The following is the assay as described in the Millopore protocol guide. […] (specific activity approx. 500 cpm/pmol, concentration as required). The reaction is initiated by the addition of the MgATP mix. After incubation for 40 minutes at room temperature, the reaction is stopped by the addition of 5 μL of a 3% phosphoric acid solution. 10 μL of the reaction is then spotted onto a P30 filtermat and washed three times for 5 minutes in 75 mM phosphoric acid and once in methanol prior to drying and scintillation counting.

MDAMB-231 = test: Alamar Blue cell proliferation assay, MDAMB-231; assay type: cell-based; conditions: Homo sapiens, MDA-MB-231, Table 4, read-out: AB: MDAMB231
Procedure: as §1, §2, §3, §4, §5, §6, §7, §8, §9, §10, §11

BxPC3 = test: Alamar Blue cell proliferation assay, BxPC3; assay type: cell-based; conditions: Homo sapiens, BXPC-3, Table 4, read-out: AB: BxPC3
Procedure: as §1, §2, §3, §4, §5, §6, §7, §8, §9, §10, §11

MV-4-11 (AML) xenograft = conditions: 2008 AACR Annual Meeting, Abstract No. 4974; cited from earlier work
MOLM-13 (AML) xenograft = conditions: 2008 AACR Annual Meeting, Abstract No. 4974; cited from earlier work
[3] = system: leukemic cells from AML patients; conditions: Fedorov et al., PNAS 104(51); cited from earlier work
[4] = Table 6, 15 μm ATP, read-out: PIM2: IC50 (15 μm ATP)

recombinant human PIM2, sequence (Q9P1W9 whole entry): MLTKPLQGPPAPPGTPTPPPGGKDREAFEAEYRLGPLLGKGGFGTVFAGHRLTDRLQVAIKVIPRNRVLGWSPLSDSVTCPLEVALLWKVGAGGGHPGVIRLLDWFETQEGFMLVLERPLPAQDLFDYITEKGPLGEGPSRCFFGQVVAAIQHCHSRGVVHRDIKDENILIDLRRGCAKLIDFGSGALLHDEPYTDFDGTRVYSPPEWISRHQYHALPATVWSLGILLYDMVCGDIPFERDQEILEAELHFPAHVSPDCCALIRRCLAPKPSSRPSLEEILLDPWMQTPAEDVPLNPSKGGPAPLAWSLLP

CCN(CC)CCNC(=O)c1ccc(-c2ccc(/C=C3/C(=O)Nc4ccc(Cl)cc43)o2)cc1 [drawing 260]
IC50 (recombinant human PIM2; [4]): < 1000 nM

O=C1Nc2ccccc2/C1=C\c1ccc(-c2ccc(Cl)c(C(=O)NCCN3CCCC3)c2)o1 [drawing 261]
IC50 (recombinant human FLT-3): 211 nM

O=C1Nc2ccc(F)cc2/C1=C\c1ccc(-c2cccc(C(=O)NC3CC3)c2)o1 [drawing 263]
IC50 (recombinant human FLT-3): 306 nM

O=C1Nc2ccc(F)cc2/C1=C\c1ccc(-c2cccc(C(=O)NCc3ccncc3)c2)o1 [drawing 264]
IC50 (recombinant human FLT-3): 147 nM

CCN(CC)CCC(=O)Nc1cccc(-c2ccc(/C=C3/C(=O)Nc4ccccc43)o2)c1 [drawing 235]
IC50 (recombinant PIM-1): 259 nM | IC50 (K-562): 472 nM | IC50 [1]: 101 nM | IC50 [2]: 3930 nM | IC50 (MV-4-11): 349 nM | IC50 (THP-1): 3770 nM | IC50 (phospho FLT3): > 10000 nM | IC50 (phospho BAD): 1410 nM

O=C1Nc2ccccc2/C1=C\c1ccc(-c2ccc(C(=O)NCCN3CCCC3)cc2)o1
IC50 (recombinant human FLT-3): 99 nM

Cn1cncc1CNC(=O)c1cccc(-c2ccc(/C=C3/C(=O)Nc4ccc(F)cc43)o2)c1 [drawing 265]
IC50 (recombinant human FLT-3): 100 nM

CN1CCCN(C(=O)c2ccc(-c3ccc(/C=C4/C(=O)Nc5ccc(Cl)cc54)o3)cc2)CC1 [drawing 259]
IC50 (recombinant human PIM2; [4]): < 1000 nM

C/C(=C1\C(=O)Nc2ccc(Cl)cc21)c1ccc(-c2ccc(C(=O)N3CCCN(C)CC3)cc2)o1 [drawing 336]
IC50 (recombinant human PIM2; Table 8, read-out: PIM2 IC50): < 500 nM | IC50 (Pim-3 (h)): < 1000 nM

O=C(CN1CCCC1)Nc1cccc(-c2ccc(/C=C3/C(=O)Nc4ccccc43)o2)c1 [drawing 236]
IC50 (recombinant PIM-1): 549 nM | IC50 (K-562): 1370 nM | IC50 [1]: > 10000 nM | IC50 [2]: 1350 nM | IC50 (MV-4-11): 350 nM | IC50 (THP-1): 3860 nM | IC50 (phospho FLT3): > 10000 nM | IC50 (phospho BAD): 2130 nM

O=C1Nc2ccc(Cl)cc2/C1=C\c1ccc(-c2cccc(C(=O)NCCCO)c2)o1
IC50 (K-562): > 10000 nM | IC50 [1]: > 30000 nM | IC50 [2]: > 30000 nM | IC50 (MV-4-11): 608 nM | IC50 (THP-1): > 30000 nM | IC50 (phospho FLT3): > 10000 nM | IC50 (phospho BAD): 3500 nM

CN1CCCN(C(=O)c2ccc(-c3ccc(/C=C4/C(=O)Nc5ccc(Cl)cc54)o3)cc2)CC1 [drawing 337]
IC50 (recombinant human PIM2; Table 8, read-out: PIM2 IC50): < 500 nM | IC50 (Pim-3 (h)): < 1000 nM

C/C(=C1\C(=O)Nc2ccc(Cl)cc21)c1ccc(-c2cccc(C(=O)N3CCCN(C)CC3)c2)o1
IC50 (K-562): 777 nM | IC50 (MDAMB-231): 816 nM | IC50 (MV-4-11): 178 nM | IC50 (BxPC3): 785 nM | IC50 (phospho FLT3): 9060 nM | IC50 (phospho BAD): 1760 nM

C/C(=C1\C(=O)Nc2ccc(Cl)cc21)c1ccc(-c2ccc(C(=O)N3CCCN(C)CC3)cc2)o1 [drawing 258]
IC50 (recombinant human PIM2; [4]): < 1000 nM

CN1CCC(CNc2ccc3ncc(-c4cccc(OC(F)(F)F)c4)n3n2)CC1 [SGI-1776]
tumor regression in MV-4-11 (AML) xenograft model (MV-4-11 (AML) xenograft): significant tumor regression | tumor regression in MOLM-13 (AML) xenograft model (MOLM-13 (AML) xenograft): significant tumor regression

CN(C)C[C@@H]1CCn2cc(c3ccccc32)C2=C(C(=O)NC2=O)c2cn(c3ccccc23)CCO1 [Ly5333′531]
cell growth and cell death in leukemic cells from AML patients [3]: suppressed cell growth and induced cell death

O=C1Nc2ccc(Cl)cc2/C1=C\c1ccc(-c2cccc(C(=O)NCCN(CCO)CCO)c2)o1 [drawing 238]
IC50 (recombinant PIM-1): 81 nM | IC50 (K-562): 1610 nM | IC50 [1]: > 30000 nM | IC50 [2]: > 30000 nM | IC50 (MV-4-11): 288 nM | IC50 (THP-1): 2900 nM | IC50 (phospho FLT3): > 10000 nM | IC50 (phospho BAD): 609 nM
